Reference: publication PMC7774954, “Interactomic affinity profiling by holdup assay: Acetylation and distal residues impact the PDZome-binding specificity of PTEN phosphatase” (PLoS ONE, 2020)
*1 amine or outer side, *2 acyl side, *3 side chain or, on linkers, in order; H or OH if unused. Where a SMILES comes first, the peptide text is derived from it. The star is where a group is joined. X1 = O=C(CCCC[C@@H]1SC[C@@H]2NC(=O)N[C@@H]21)NCCCOCCOCCOCCCN*; Suc = O=C(CCC(=O)[*:2])[*:1]

Experiments:
[1] = molecular target: T1, ARHGEF12-1 (Homo sapiens, UniProt Q9NZN5); assay: Holdup assay, ARHGEF12-1; format: binding
T1 sequence (Q9NZN5 72-151): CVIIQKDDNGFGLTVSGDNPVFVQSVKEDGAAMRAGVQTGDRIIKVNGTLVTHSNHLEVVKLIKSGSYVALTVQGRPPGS

[2] = tested on: GRIP2-4; assay: Holdup assay, GRIP2-4; format: binding, human

CC[C@H](C)[C@H](NC(=O)[C@H](CCC(N)=O)NC(=O)[C@@H](NC(=O)[C@H](Cc1c[nH]cn1)NC(=O)[C@H](CCC(N)=O)NC(=O)[C@H](CC(=O)O)NC(=O)[C@H](CCC(=O)O)NC(=O)[C@H](CC(=O)O)NC(=O)CCC(=O)NCCCOCCOCCOCCCNC(=O)CCCC[C@@H]1SC[C@@H]2NC(=O)N[C@@H]21)[C@@H](C)O)C(=O)N[C@H](C(=O)N[C@@H](CCCCN)C(=O)N[C@H](C(=O)O)C(C)C)[C@@H](C)O [PTEN_11]
BI [1]: 0.392 | Kd [1]: 50.3 µM | BI [2]: -0.019 | LogKD [2]: 3.519

CC[C@H](C)[C@H](NC(=O)[C@H](CCC(N)=O)NC(=O)[C@@H](NC(=O)[C@H](Cc1c[nH]cn1)NC(=O)[C@H](CCC(N)=O)NC(=O)[C@H](CC(=O)O)NC(=O)[C@H](CCC(=O)O)NC(=O)[C@H](CC(=O)O)NC(=O)CCC(=O)NCCCOCCOCCOCCCNC(=O)CCCC[C@@H]1SC[C@@H]2NC(=O)N[C@@H]21)[C@@H](C)O)C(=O)N[C@H](C(=O)N[C@@H](CCCCNC(C)=O)C(=O)N[C@H](C(=O)O)C(C)C)[C@@H](C)O [PTEN_Ac]
BI [1]: 0.535 | Kd [1]: 22.5 µM

CC[C@H](C)[C@H](NC(=O)[C@H](CCC(N)=O)NC(=O)[C@@H](NC(=O)[C@H](Cc1c[nH]cn1)NC(=O)[C@H](CCC(N)=O)NC(=O)[C@H](CC(=O)O)NC(=O)[C@H](CCC(=O)O)NC(=O)[C@H](CC(=O)O)NC(=O)[C@H](Cc1ccccc1)NC(=O)[C@@H]1CCCN1C(=O)CCC(=O)NCCCOCCOCCOCCCNC(=O)CCCC[C@@H]1SC[C@@H]2NC(=O)N[C@@H]21)[C@@H](C)O)C(=O)N[C@H](C(=O)N[C@@H](CCCCN)C(=O)N[C@H](C(=O)O)C(C)C)[C@@H](C)O [PTEN_13] ({X1-Suc}-PFDEDQHTQITKV-OH)
BI [1]: 0.169 | BI [2]: -0.022

CC[C@H](C)[C@H](NC(=O)[C@H](CCC(N)=O)NC(=O)[C@@H](NC(=O)[C@H](Cc1c[nH]cn1)NC(=O)[C@H](CCC(N)=O)NC(=O)[C@H](CC(=O)O)NC(=O)[C@H](CCC(=O)O)NC(=O)[C@H](CC(=O)O)NC(=O)CCC(=O)NCCCOCCOCCOCCCNC(=O)CCCC[C@@H]1SC[C@@H]2NC(=O)N[C@@H]21)[C@@H](C)O)C(=O)N[C@H](C(=O)N[C@@H](CCCNC(=N)N)C(=O)N[C@H](C(=O)O)C(C)C)[C@@H](C)O [PTEN_KR] ({X1-Suc}-DEDQHTQITRV-OH)
BI [1]: 0.433 | Kd [1]: 30.5 µM | BI [2]: -0.019 | LogKD [2]: 3.655
